The source of these data is US4217357A, “Inhibition of thromboxane synthetase with 3-(imidazol-1-ylalkyl)indoles” (Pfizer Inc., priority 1978, dated 1980).

Test [1] addresses T1, prostacyclin synthetase (Sus scrofa, UniProt A0A5G2QT35).
T1 construct: Pig aorta microsomes; from tissue; host or cells: pig aorta microsomes
T1 sequence (A0A5G2QT35 1-497): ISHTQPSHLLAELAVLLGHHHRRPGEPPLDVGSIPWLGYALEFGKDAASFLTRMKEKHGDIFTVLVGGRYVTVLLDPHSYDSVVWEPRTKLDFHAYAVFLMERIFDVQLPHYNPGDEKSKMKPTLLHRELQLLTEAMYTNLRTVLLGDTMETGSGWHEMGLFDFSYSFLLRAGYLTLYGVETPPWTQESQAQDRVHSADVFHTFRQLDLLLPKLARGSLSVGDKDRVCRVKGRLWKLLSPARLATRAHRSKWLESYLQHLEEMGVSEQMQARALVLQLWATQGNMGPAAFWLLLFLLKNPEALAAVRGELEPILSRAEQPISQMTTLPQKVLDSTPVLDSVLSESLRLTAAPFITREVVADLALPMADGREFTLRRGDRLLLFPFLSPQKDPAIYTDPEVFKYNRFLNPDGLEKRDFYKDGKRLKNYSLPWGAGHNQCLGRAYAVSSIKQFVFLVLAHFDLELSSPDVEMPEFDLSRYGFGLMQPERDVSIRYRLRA
As to conditions: pre-incubation of the enzyme with the selective PGI2 synthetase inhibitor; cited from earlier work.

Test [2] deals with T1, prostacyclin synthetase. Put plainly: Prostacyclin (PGI2) synthetase in vitro enzyme assay. To be noted: pig aorta microsomes, PGH2, 22° C., 30 seconds; 5 min pre-incubation; read-out: Concentration causing 50% inhibition of (3) prostacyclin synthetase. The format is biochemical.
The target in test [3] is T2, thromboxane synthetase (Homo sapiens, UniProt P24557).
T2 construct: Indomethacin-pretreated human platelet microsomes; from tissue; host or cells: human platelet microsomes
T2 sequence (P24557 1-533): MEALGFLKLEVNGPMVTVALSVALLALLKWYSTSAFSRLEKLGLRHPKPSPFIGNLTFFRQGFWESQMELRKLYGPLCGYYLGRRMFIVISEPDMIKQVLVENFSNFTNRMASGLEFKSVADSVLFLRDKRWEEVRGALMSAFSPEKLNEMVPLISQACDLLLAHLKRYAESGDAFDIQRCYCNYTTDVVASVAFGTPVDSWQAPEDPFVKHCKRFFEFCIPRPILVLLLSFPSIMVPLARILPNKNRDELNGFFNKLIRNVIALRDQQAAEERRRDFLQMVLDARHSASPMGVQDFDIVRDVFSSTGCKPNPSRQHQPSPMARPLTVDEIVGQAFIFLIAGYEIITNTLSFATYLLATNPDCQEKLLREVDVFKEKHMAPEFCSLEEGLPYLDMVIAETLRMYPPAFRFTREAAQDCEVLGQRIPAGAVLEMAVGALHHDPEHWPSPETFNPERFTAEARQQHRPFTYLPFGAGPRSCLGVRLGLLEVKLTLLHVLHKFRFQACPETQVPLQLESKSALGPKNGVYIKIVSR
Put plainly: Thromboxane A2 (TxA2) synthetase in vitro enzyme assay. The format is biochemical. To be noted: for IC50: indomethacin-pretreated human platelet microsomes, PGH2, 0° C., 2 min, 5 min pre-incubation, read-out: Concentration causing 50% inhibition of (1) thromboxane synthetase; for Ratio of (3) to (1): prostacyclin synthetase / thromboxane synthetase 50% inhibition concentrations. On the procedure: Indomethacin-pretreated human platelet microsomes (Science, 1976, 193, 163) are incubated with PGH2 (produced as described in test No. 1) at 0° C. for a period of two minutes, and aliquots of the reaction mixture are then superfused over two rabbit aorta spirals which are separated by a delay coil (2 min.). The latter is required in order to allow for the selective decay of the more unstable thromboxane A2 (Proc. Nat. Acad. Sci., 1975, 72, 2994), thereby enabling separate measurement of the increased isometric tension due to the TxA2 formed and the PGH2 remaining to take place. The test compound is then pre-incubated with the enzyme for a period of five minutes, and its ability to inhibit the thromboxane synthetase enzyme is measured as its reduction of the TxA2 component of the isometric tension.

In test [4] the target is T3, cyclo-oxygenase (Ovis aries, UniProt P05979).
T3 construct: Ram seminal vesicle microsomes; from tissue; host or cells: ram seminal vesicle microsomes
T3 sequence (P05979 25-600): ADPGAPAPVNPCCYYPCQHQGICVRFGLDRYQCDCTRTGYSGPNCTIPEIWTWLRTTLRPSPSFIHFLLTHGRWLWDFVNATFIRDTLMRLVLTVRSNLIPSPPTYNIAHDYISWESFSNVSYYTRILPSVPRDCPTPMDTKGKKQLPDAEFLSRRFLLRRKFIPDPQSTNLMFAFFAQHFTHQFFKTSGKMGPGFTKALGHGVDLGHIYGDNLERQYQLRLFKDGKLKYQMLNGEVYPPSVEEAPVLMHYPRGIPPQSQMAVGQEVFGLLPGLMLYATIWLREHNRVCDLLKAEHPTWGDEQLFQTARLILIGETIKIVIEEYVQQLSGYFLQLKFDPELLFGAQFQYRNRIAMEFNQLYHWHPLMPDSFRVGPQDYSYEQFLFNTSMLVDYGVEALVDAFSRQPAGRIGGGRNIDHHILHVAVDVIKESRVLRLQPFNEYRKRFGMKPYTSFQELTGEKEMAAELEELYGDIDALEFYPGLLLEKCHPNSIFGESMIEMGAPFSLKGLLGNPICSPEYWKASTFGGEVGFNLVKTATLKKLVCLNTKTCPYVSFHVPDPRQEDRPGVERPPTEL
The experiment in a line: Cyclo-oxygenase in vitro enzyme assay. Type of test: biochemical. To be noted: ram seminal vesicle microsomes, arachidonic acid 100 μM, 22° C., 1 min; 5 min pre-incubation; read-out: Concentration causing 50% inhibition of (2) cyclo-oxygenase. The protocol: The effect of the compounds of the formula (I) on the thromboxane synthetase enzyme, and the prostacyclin synthetase and cyclo-oxygenase enzymes has been measured by the following in vitro enzyme assay tests:
Ram seminal vesicle microsomes (Biochemistry, 1971, 10, 2372) are incubated with arachidonic acid (100 μM) at 22° C. for a period of one minute so as to produce PGH2, and aliquots of this reaction mixture are then injected into a stream of Krebs-bicarbonate at 37° C. [containing a mixture of antagonists (Nature, […], 218, 1135) and indomethacin (Brit. J. Pharmacol., 1972, 45, 451)] which is superfusing a spirally-cut rabbit aorta strip (Nature, 1969, 223, 29). The ability of a compound to inhibit the enzyme is measured by comparing the increases in isometric tension produced by PGH2 in the absence of the test compound and again, following pre-incubation of the enzyme with the test compound for a period of five minutes.

The test system of test [5] is rabbit. As to conditions: intravenous arachidonic acid, rabbits; cited from earlier work.
Test [6] relates to stroke and heart attack. As to conditions: clinical evaluation; cited from earlier work.
For test [7], the system named is cyclo-oxygenase enzyme. To be noted: in words; cited from earlier work.
Test [8] deals with human blood platelet aggregation. To be noted: variety of aggregating agents; cited from earlier work.

Take `CCCCCC(/C=C/C=C\C/C=C\C/C=C\CCCC(=O)O)OO` (centres unmarked) [15-hydroperoxy-arachidonic acid]: in test [1], the “prevention of the decrease in PGH2-induced tension” value is recorded as “prevented completely”.
Regarding `c1ccc2c(Cn3ccnc3)c[nH]c2c1` [*, 3-(imidazol-1-ylmethyl)-indole], the IC50 in test [2] is 650 µM; in test [3] it was 30 nM; in test [4], over 1000 µM. Also, the “Ratio of (3) to (1)” value in test [3] was 22,000.
In the same order, the values of `CC(C)c1[nH]c2ccccc2c1Cn1ccnc1` [Example I, 3-(imidazol-1-ylmethyl)-2-isopropylindole] are over 100 µM, 17 nM, over 100 µM and > 6,000.
For `COc1ccc2[nH]c(C)c(Cn3ccnc3)c2c1` [Example V, 3-(imidazol-1-ylmethyl)-5-methoxy-2-methylindole] the same measures were 4 µM, 62 nM, over 100 µM and 65.
With `CC(C)(C)c1[nH]c2ccccc2c1Cn1ccnc1` [Example VI, 3-(imidazol-1-ylmethyl)-2-tert-butylindole], the IC50 in test [4] is over 100 µM.
As for `Cc1cccc2c(Cn3ccnc3)c[nH]c12` [Example X, 3-(imidazol-1-ylmethyl)-7-methylindole], the IC50 in test [2] was over 100 µM; in test [3], 8.4 nM; in test [4], over 100 µM. Moreover, the “Ratio of (3) to (1)” value in test [3] is > 12,000.
For `O=C(c1ccccc1)n1cc(Cn2ccnc2)c2ccccc21` [Example XL, 1-benzoyl-3-(imidazol-1-ylmethyl)indole], the IC50 in test [2] is 1.7 µM; in test [3], 2 nM; in test [4], over 100 µM. Also, the “Ratio of (3) to (1)” value in test [3] was determined as 850.
In the same order, the values of `Clc1ccccc1-c1[nH]c2ccccc2c1Cn1ccnc1` [Example XX, 2-(o-chlorophenyl)-3-(imidazol-1-ylmethyl)indole] are 40 µM, 3 nM, over 100 µM and 13,000.
Regarding `Cl.c1ccc(Cn2cc(Cn3ccnc3)c3ccccc32)cc1` [Example XXVI, 1-benzyl-3-(imidazol-1-ylmethyl)indole hydrochloride], the IC50 is 1 µM in test [2], 65 nM in test [3] and over 100 µM in test [4]. In test [3], the “Ratio of (3) to (1)” value is on record as 15.
With `Cc1[nH]c2ccccc2c1Cn1ccnc1` [II, 3-(imidazol-1-ylmethyl)-2-methylindole], the figures for the IC50 in test [2], in test [3] and in test [4] were 30 µM, 12 nM and over 100 µM, respectively. The “Ratio of (3) to (1)” value in test [3] is reported as 2,500.
In the same order, the values of `c1ccc(-c2[nH]c3ccccc3c2Cn2ccnc2)cc1` [III, 3-(imidazol-1-ylmethyl)-2-phenylindole] are 12 µM, 10 nM, over 100 µM and 1,200.
`COc1ccc2[nH]cc(Cn3ccnc3)c2c1` [IV, 3-(imidazol-1-ylmethyl)-5-methoxyindole]: the IC50 was 100 µM in test [2], 200 nM in test [3] and over 100 µM in test [4]. Moreover, the “Ratio of (3) to (1)” value in test [3] was 500.
In the case of `Brc1ccc2[nH]cc(Cn3ccnc3)c2c1` [IX, 5-bromo-3-(imidazol-1-ylmethyl)indole], the figures for the IC50 in test [2], in test [3] and in test [4] were 17 µM, 100 nM and over 100 µM, respectively. Besides, in test [3], the “Ratio of (3) to (1)” value was 170.
`Oc1ccc(-c2[nH]c3ccccc3c2Cn2ccnc2)cc1` [L, 2-(p-hydroxyphenyl)-3-(imidazol-1-ylmethyl)indole]: the figures for the IC50 in test [2], in test [3] and in test [4] were 3 µM, 6.6 nM and over 100 µM, respectively. Moreover, the “Ratio of (3) to (1)” value in test [3] amounted to 450.
With `c1ccc2c(Cn3ccnc3)c(C3CCCCC3)[nH]c2c1` [XII, 2-cyclohexyl-3-(imidazol-1-ylmethyl)indole], the results for the IC50 in test [2], in test [3] and in test [4] were 21 µM, 0.3 nM and over 100 µM, respectively. For the same molecule, the “Ratio of (3) to (1)” value in test [3] is on record as 70,000.
In the same order, the values of `c1ccc2c(Cn3ccnc3)c(C3CC3)[nH]c2c1` [XIII, 2-cyclopropyl-3-(imidazol-1-ylmethyl)indole] are 0.84 µM, 0.1 nM, over 100 µM and 8,400.
For the molecule `Cc1ccc(-c2[nH]c3ccccc3c2Cn2ccnc2)cc1` [XVII, 3-(imidazol-1-ylmethyl)-2-(p-tolyl)indole], the results for the IC50 in test [2], in test [3] and in test [4] were 2 µM, 0.25 nM and over 100 µM, respectively. Also, the “Ratio of (3) to (1)” value in test [3] is recorded as 8,000.
For `Cn1cc(Cn2ccnc2)c2ccccc21` [XXVII, 3-(imidazol-1-ylmethyl)-1-methylindole] the same measures were over 100 µM, 2 nM, over 100 µM and > 50,000.
Take `CC(=O)Oc1ccccc1C(=O)O` [aspirin]: the “protection from the lethal effect of arachidonic acid injection” value in test [5] is reported as “protect the rabbit from the lethal effect of the injection”. In test [6], the “clinical results in prevention of stroke and heart attack” value is reported as “some encouraging results”. Further, in test [7], the “effect on prostacyclin and thromboxane A2 levels” value was “reduce both the prostacyclin and thromboxane A2 levels”; the “inhibition of the cyclo-oxygenase enzyme” value is “inhibit the cyclo-oxygenase enzyme”. Moreover, in test [8], the “inhibitory activity in vitro against aggregating agents” value is on record as “show inhibitory activity in vitro”.
